Results reported in US20250186454A1, “METHODS FOR TREATING ABERRANT BEHAVIOR AND MOTOR ACTIVITY” (LAPKO INC, dba AFECTA PHARMACEUTICALS, priority 2023, published 2025).

Legend:
[1] = pharmacokinetic study of equivalent doses by gastric absorption compared to sublingual absorption; type: in vivo
Description: A study of equivalent doses of molindone administered by gastric absorption compared to sublingual absorption. […] Molindone is primarily, if not exclusively, metabolized by the liver (hepatic metabolism). The first metabolite of molindone obtained by liver metabolism is 3-ethyl-2-(hydroxymethyl)-5-[(morpholin-4-yl)methyl]-1,5,6,7tetrahydro-4H-indol-4-one. The level of this metabolite was also measured at the Cmax of the sublingual and gastric dosing regimens.

[2] = test system: patients with ASD; experiment: open-label observational trial, eight weeks, response scored using the ABC-C scale; type: in vivo, human
Description: In an open-label observational trial by an investigator, 11 patients with ASD were treated for eight weeks with molindone starting at 5 mg/day and the dosage increased by the patient and caregiver in 5 mg increments as tolerated by the subjects up to a maximum dose of 25 mg/day or until amelioration of the aberrant behaviors was seen. Patient response was scored using the ABC-C scale.

[3] = N=11, Week 8 vs baseline, p <0.0001

## CCc1c(C)[nH]c2c1C(=O)C(CN1CCOCC1)CC2 (stereo not drawn) [molindone, 3-ethyl-2-methyl-5-(morpholin-4-ylmethyl)-1,5,6,7-tetrahydroindol-4-one]
[1]; non-gastric dosing regimen compared to gastric dosing
  T1/2: longer
[1]; sublingual dosing compared to gastric dosing
  area under the curve (AUC): better
[1]; sublingual dosing compared to gastric dosing, equivalent doses, FIG. 1
  Cmax (highest plasma concentration of the drug): higher
[2]; ASD patients, eight weeks
  body weight during the course of therapy (subjective responses from caregivers and subjects): noticeable and desirable weight loss
  somnolence during the course of the study: none complained of increased somnolence
[2]; N=11, Week 8 vs baseline, p 0.0001
  ABC-C Total Score (0-174), Decrease from baseline (%): 69.9%
[2]; N=11, Week 8 vs baseline, p 0.0048
  ABC-C Inappropriate speech (0-12), Decrease from baseline (%): 77%
[2]; N=11, Week 8 vs baseline, p 0.0069
  ABC-C Lethargic/Withdrawn (0-48), Decrease from baseline (%): 63.2%
[2]; N=11, Week 8 vs baseline, p 0.0081
  ABC-C Stereotypy (0-21), Decrease from baseline (%): 72.8%
[2]; [3]
  ABC-C Hyperactivity/Noncompliance (0-48), Decrease from baseline (%): 62.4%
  ABC-C Irratability (0-45), Decrease from baseline (%): 76.6%
[2]; N=11 ASD patients, 5 up to 25 mg/day, baseline 9.6, p 0.0048
  ABC-C Scale Mean Score, Inappropriate speech (0-12), Week 8: 2.2
[2]; N=11 ASD patients, 5 up to 25 mg/day, baseline 11.8, p 0.0081
  ABC-C Scale Mean Score, Stereotypy (0-21), Week 8: 3.2
[2]; N=11 ASD patients, 5 up to 25 mg/day, baseline 16.5, p 0.0069
  ABC-C Scale Mean Score, Lethargic/Withdrawn (0-48), Week 8: 6.4
[2]; N=11 ASD patients, 5 up to 25 mg/day, baseline 29.8, p <0.0001
  ABC-C Scale Mean Score, Hyperactivity/Noncompliance (0-48), Week 8: 11.2
[2]; N=11 ASD patients, 5 up to 25 mg/day, baseline 35.6, p <0.0001
  ABC-C Scale Mean Score, Irratability (0-45), Week 8: 8.3
[2]; N=11 ASD patients, 5 up to 25 mg/day, baseline 103.3, p 0.0001
  ABC-C Scale Mean Score, Total Score (0-174), Week 8: 31.3
[2]; during the eight-week study, all p values less than 0.05
  reduction of symptoms in all five ABC-C categories, including stereotypy: significant improvement
